Assay results published in patent US5446023A, “Amphiphilic compounds derived from amino acids or peptides, their methods of synthesis and their application as drug delivery systems” (Alliance Pharmaceutical Corporation, priority 1992, dated 1995).

Columns and labels:
[1] = Differential scanning calorimetry: phase transition temperature and transition enthalpy; assay type: physicochemical
Procedure: The phase transition temperatures and the transition enthalpies were determined after hydration by a known quantity of water using a SETARAM DSC-92 apparatus.
Example 22: Product 6d (16 mg) was hydrated with […] of a mixture of water/ethylene glycol 60/40 (hydratation percentage 28%).
Example 23: Product 6a (10.8 mg) was hydrated with a mixture of water/ethylene glycol 60/40 (hydration percentage 37%).

[2] = assay type: physicochemical; set-up: formation of vesicles after sonication: dose or concentration left out as unconfirmed
Procedure: (§1) Product 6a (30 mg) was dissolved in a mixture of chloroform/methanol (1/1 v/v) in a round 4 mL tube. The solvent was evaporated in a rotavapor until a uniform film was obtained. The remaining traces of solvent were eliminated under vacuum. Water for injectable preparations (3.97 mL) was added to the dried product. After stirring with a Vortex for 3 minutes, sonication (BRANSON B30, 7 mm probe, Power 5, pulsed mode 50, 15 minutes) at 20° C. above the phase-transition temperature gave a bluish dispersion.
An aqueous dispersion of compound 7b ([…], 60 mM) in citric acid (2 ml, 1M pH=4) was prepared (sonication, probe 3 mm, power5, room temperature, 5 min, mean diameter=35 nm). […] Adriamycin (12 ml, 30 mM) was added to the liposomal dispersion. The amount of drug encapsulated, the stability of encapsulation over time and the release of adriamycin were measured.

[3] = In vivo toxicity in mice, rapid intraperitoneal injection; conditions: mouse, in vivo, ip
Procedure: (§2) In vivo toxicity of products 6a, 6b, 6c in mice. A rapid intraperitoneal injection was made, of 0.5 mL (25 mL/kg animal body weight, n=10) of a dispersion of these products in physiological water.

mice [4] = test: as above; conditions: 500 mg/kg
Procedure: as §2

[5] = Identification of vesicles by (transmission) electronic microscopy, negative staining; assay type: physicochemical; conditions: for formation of vesicles (transmission electronic microscopy): negative staining, after dispersion; for formation of vesicles: procedure of example 14, 10^-2 M; for formation of vesicles / formation of vesicles upon dispersion with water: electronic microscopy; for formation of vesicles upon dispersion with water: 10^-2 M
Procedure: as §1
The formation of vesicles was observed by transmission electronic microscopy by the negative staining method. The lipidic dispersion was applied on a grid covered with FORMVAR membrane. The sample was colored by depositing of a drop of phosphotungstic acid (2%, pH adjusted to 7) for 1 min. The excess acid was removed using a filter paper. The grid was then dried and the sample was examined using a PHILIPS microscope (CM2 Model) at 80 Kv.
FIG. 1 is a micrography obtained in these conditions on a 10^-2 M dispersion of product 6a.

[6] = tested on: lymphoblastoid cell cultures of the Namalva type; test: Toxicity on lymphoblastoid cell cultures (Namalva); assay type: cell-based; conditions: 4 days at 37° C.
Procedure: Example 26: The toxicity of products 6a and 6e was determined on lymphoblastoid cell cultures of the Namalva type in an RPMI medium containing 10% of foetal calf serum at 37° C. under 7% CO2, according to the method described by M. Le Blanc et al in Pharm. Res. 195 (1988).

[7] = Observation of vesicles by electronic microscopy after freeze-fracture; assay type: physicochemical; conditions: 10^-2 M dispersions
Procedure: One drop of lipic dispersion (about […]) was placed on a copper support. Freezing was realized by rapid immersion in liquid propane […]. The fractures were realized using a Balzers BAF 300 at -120° C. under 10^-6 mmHg with a knife cooled to -150° C. The replicas were obtained by depositing a platinum layer (10-20 A) under an angle of 35° then carbon (110-120 A) with an angle of 90°. The replicas were then immersed in water, washed, placed on a copper grid (3 mm, 300 mesh) and examined with a HITACHI 600 electronic microscope (H600) at 75 KV. […] FIG. 2 represents the photomicrographs obtained on 10^-2 M dispersions of products 6b, 7a, 7b.

human erythrocytes = test: Hemolytic activity on human erythrocytes; assay type: cell-based; conditions: concentration of 50 g/l, 1 hour, 37° C.
Procedure: Example 25: The hemolytic activity of products 6h, 6i was determined by adding 2 mL of a solution of these products in physiological water to an equal volume of a 1% suspension of human erythrocytes in an isotonic phosphate buffer. After an hour of incubation at 37° C. the solutions were centrifuged. The degree of hemolysis was determined spectrophotometrically (540 nm) by comparing the quantity of hemoglobin liberated in the supernatant. Compounds 6h, 6i were not hemolytic at a concentration of 50 g/l.

[8] = In vivo toxicity in mice, rapid intravenous injection; conditions: mouse, in vivo, caudal vein, 25 mL/kg, 6i/Pluronic F-68 25/10 g/L, mice, read-out: tolerated dose
Procedure: (§3) Example 24: In vivo toxicity of product 6i in mice. A rapid intravenous injection into the caudal vein, of 0.5 mL (25 mL/kg animal body weight) of a solution of 6i in physiological water, to which Pluronic F-68 was added as dispersant (25/10 g/L, 6i/Pluronic F-68) was made.

mice [9] = test: as above; conditions: 625 mg/kg, 1 month of observation, 10 mice
Procedure: as §3

[10] = water/ethylene glycol 60/40, hydration percentage 37%
[11] = intraperitoneal, 25 mL/kg dispersion in physiological water, mice, read-out: tolerated dose
[12] = intraperitoneal, 1 month of observation, 10 mice
[13] = water/ethylene glycol 60/40, hydration percentage 28%, -10° C. to 45° C., 2° C./min

With `C=CCCCCCCCCC(CCCCCCCCCCCC)NC(=O)CNC(=O)[C@H](O)[C@@H](O)[C@H](O[C@@H]1O[C@H](CO)[C@H](O)[C@H](O)[C@H]1O)[C@H](O)CO` (stereo partly drawn) [Product 6a, Nα-[1-lactobionocarbonyl]-N-11[trieicos-1-en-yl] glycinamide] the “Tc (phase transition temperature)” value [1, 10] was 22 °C, the transition enthalpy [1, 10] was -11.6 mcal/mg and the “stability of dispersion (particle size)” value [2] was “at least 1 month”. The “effect of sterilization on vesicles” value ([2]; 121° C. for 15 minutes) was “did not significantly modify these vesicles”, the “average particle diameter Φ after sterilization” value ([2]; after sterilization at 121° C. for 15 minutes) was 61 nm and the “average particle diameter Φ before sterilization” value ([2]; before sterilization at 121° C. for 15 minutes) was 58 nm. For the same compound, the “average particle diameter Φ” value ([2]; dispersion after sonication 15 min) was 49 nm, the MTD at 730 h [3] was 500 mg/kg and the deaths (mice [4]; mouse, in vivo, ip) was “no deaths occurred”. For the same compound, the “formation of vesicles (transmission electronic microscopy)” value [5] was “formation of vesicles was also observed” and the “effect on growth and viability of the cells” value (shortened to “effect on growth and viability”) [6] was “did not affect the growth and viability of the cells”.
For `C=CCCCCCCCCC(CCC(F)(F)C(F)(F)C(F)(F)C(F)(F)C(F)(F)C(F)(F)C(F)(F)C(F)(F)F)NC(=O)CNC(=O)[C@H](O)[C@@H](O)[C@H](O[C@@H]1O[C@H](CO)[C@H](O)[C@H](O)[C@H]1O)[C@H](O)CO` (stereo partly drawn) [Product 6b, N-α-[1-lactobionocarbonyl]-N-3-[1-(perfluooctyl)tridec-12-enyl] glycinamide], the “formation of vesicles (freeze-fracture)” value [7] was “formation of vesicles was established”, the MTD at 730 h [3, 11] was 500 mg/kg and the deaths (mice [4]; [12]) was “no deaths occurred”. For the same compound, the formation of vesicles [5] was “led to the formation of vesicles”.
With `C=CCCCCCCCCC(CCC(F)(F)C(F)(F)C(F)(F)C(F)(F)C(F)(F)C(F)(F)F)NC(=O)CNC(=O)[C@H](O)[C@@H](O)[C@H](O[C@@H]1O[C@H](CO)[C@H](O)[C@H](O)[C@H]1O)[C@H](O)CO` (stereo partly drawn) [Product 6c] the MTD at 730 h [3, 11] was 500 mg/kg and the deaths (mice [4]; [12]) was “no deaths occurred”.
For `CCCCCCCCCCCCC(CCCCCCCCCCC)NC(=O)CNC(=O)[C@H](O)[C@@H](O)[C@H](O[C@@H]1O[C@H](CO)[C@H](O)[C@H](O)[C@H]1O)[C@H](O)CO` (stereo partly drawn) [Product 6d, N-α-1-[lactobionocarbonyl]-N-12-[tetraeicosyl] glycinamide], the “Tc (phase transition temperature)” value [1, 13] was 14 °C, the transition enthalpy [1, 13] was -10.29 mcal/mg and the formation of vesicles [5] was “led to the formation of vesicles”.
With `CCCCCCCCCC(CCC(F)(F)C(F)(F)C(F)(F)C(F)(F)C(F)(F)C(F)(F)F)NC(=O)CNC(=O)[C@H](O)[C@@H](O)[C@H](O[C@@H]1O[C@H](CO)[C@H](O)[C@H](O)[C@H]1O)[C@H](O)CO` (stereo partly drawn) [Product 6e, N-α-1-[lactobionocarbonyl]-N-3-[1-(perfluorohexyl)dodecyl] glycinamide] the “formation of vesicles after sonication” value ([2]; sonication 20 minutes) was “led to the formation of vesicles”, the “average diameter of vesicles after sterilization” value ([2]; sonication 20 minutes, after sterilization) was 318 nm and the “effect on growth and viability” value [6] was “did not affect the growth and viability of the cells”.
For `O=C(CNC(=O)[C@H](O)[C@@H](O)[C@H](O[C@@H]1O[C@H](CO)[C@H](O)[C@H](O)[C@H]1O)[C@H](O)CO)NCCC(F)(F)C(F)(F)C(F)(F)C(F)(F)C(F)(F)C(F)(F)F` [Product 6h, Nα-1-[lactobionocarbonyl]N-1-[2-(perfluorohexyl)ethyl] glycinamide], the hemolytic activity (human erythrocytes) was “not hemolytic” and the “effect on growth and viability” value [6] was “did not affect the growth and viability of the cells”.
With `O=C(CNC(=O)[C@H](O)[C@@H](O)[C@H](O[C@@H]1O[C@H](CO)[C@H](O)[C@H](O)[C@H]1O)[C@H](O)CO)NCCC(F)(F)C(F)(F)C(F)(F)C(F)(F)C(F)(F)C(F)(F)C(F)(F)C(F)(F)F` [Product 6i] the MTD at 730 h [8] was 625 mg/kg, the deaths (mice [9]) was “no deaths occurred” and the hemolytic activity (human erythrocytes) was “not hemolytic”. For the same compound, the “effect on growth and viability” value [6] was “did not affect the growth and viability of the cells”.
With `CCCCCCCCCC(CCC(F)(F)C(F)(F)C(F)(F)C(F)(F)C(F)(F)C(F)(F)F)NC(=O)CNC(=O)CNC(=O)[C@H](O)[C@@H](O)[C@H](O[C@@H]1O[C@H](CO)[C@H](O)[C@H](O)[C@H]1O)[C@H](O)CO` (stereo partly drawn) [Product 7a] the “formation of vesicles (freeze-fracture)” value [7] was “formation of vesicles was established”, the “formation of vesicles upon dispersion with water” value [5] was “forms monolayered vesicles almost instantaneously” and the “formation of vesicles (transmission electronic microscopy)” value [5] was “formation of vesicles was also observed”.
For `C=CCCCCCCCCC(CCCCCCCCCCCC)NC(=O)CNC(=O)CNC(=O)[C@H](O)[C@@H](O)[C@H](O[C@@H]1O[C@H](CO)[C@H](O)[C@H](O)[C@H]1O)[C@H](O)CO` (stereo partly drawn) [Product 7b, N-α-(N-α-1-lactobionocarbonyl)-glycyl-N-11-(trieicos-1-enyl) glycinamide], the “formation of vesicles (freeze-fracture)” value [7] was “formation of vesicles was established”, the “mean diameter of liposomal dispersion” value ([2]; 60 mM in citric acid 1M pH=4, sonication 5 min, room temperature) was 35 nm and the “formation of vesicles upon dispersion with water” value [5] was “forms monolayered vesicles almost instantaneously”. The “formation of vesicles (transmission electronic microscopy)” value [5] was “formation of vesicles was also observed”.
